Measurements taken from patent US9040747B2, “Method for producing reduced coenzyme Q10, method for stabilizing same, and composition comprising same” (Kaneka Corporation, priority 2009, dated 2015).

Columns and labels:
[1] = Reduction of oxidized coenzyme Q10 by amino acid in ethanol, HPLC proportion of reduced coenzyme Q10; settings: 78° C., 16 hours, nitrogen atmosphere; for Comparative Example 2: proportion of reduced coenzyme Q10: 6 equivalents amino acid; for Proportion of reduced coenzyme Q10: Example 1: 6 equivalents amino acid
Method: (§1) The purity of reduced coenzyme Q10 and the weight ratio of reduced coenzyme Q10 to oxidized coenzyme Q10 were determined by HPLC analysis in the Examples.
Crystalline oxidized coenzyme Q10 (0.3 g (i.e., 0.36 mmol)) was added to ethanol (4.5 g). […] The obtained mixtures were stirred and heated at 78° C. for 16 hours under a nitrogen atmosphere.

[2] = Reduction of oxidized coenzyme Q10 by amino acid in Span 80/glycerin/Tween 80/MCT, HPLC proportion of reduced coenzyme Q10; settings: Span 80, glycerin, Tween 80, MCT, 80° C., 16 hours, nitrogen atmosphere; for Comparative Example 3: proportion of reduced coenzyme Q10: 6 equivalents amino acid; for Proportion of reduced coenzyme Q10: Example 2 / Comparative Example 1: 6 equivalents
Method: as §1
(§2) Column: […] C18 (Waters): 250 mm (length)×4.6 mm (inner diameter); mobile phase: C2H5OH:CH3OH=4:3 (v:v); detection wavelength: 210 nm; flow rate: 1 ml/min; retention time for reduced coenzyme Q10: 9.1 min.; retention time for oxidized coenzyme Q10: 13.3 min.
Crystalline oxidized coenzyme Q10 (0.3 g (i.e., 0.36 mmol)) and tryptophan (6 equivalents (i.e., 2.16 mmol)) were added to a liquid mixture of Span 80 (0.4 g), glycerin (0.3 g), Tween 80 (4.9 g), and MCT (1.4 g). The obtained mixture was stirred and heated at 80° C. for 16 hours under a nitrogen atmosphere.
Crystalline oxidized coenzyme Q10 (0.3 g (i.e., 0.36 mmol)) was added to a liquid mixture of Span 80 (0.4 g), glycerin (0.3 g), Tween 80 (4.9 g), and MCT (1.4 g). L-cysteine or N-acetylcysteine (6 equivalents (i.e., 2.16 mmol) each) was separately added thereto. The obtained mixtures were stirred and heated at 80° C. for 16 hours under a nitrogen atmosphere.
Crystalline oxidized coenzyme Q10 (0.3 g (i.e., 0.36 mmol)) was added to a liquid mixture of Span 80 (0.4 g), glycerin (0.3 g), Tween 80 (4.9 g), and MCT (1.4 g). One of the amino acids (6 equivalents (i.e., 2.16 mmol) each) listed in table 3 was separately added thereto. The obtained mixtures were stirred and heated at 80° C. for 16 hours under a nitrogen atmosphere.

[3] = Reduction of oxidized coenzyme Q10 by amino acid in limonene, HPLC proportion of reduced coenzyme Q10; settings: 85° C., 16 hours, nitrogen atmosphere; for Comparative Example 4: proportion of reduced coenzyme Q10: 6 equivalents amino acid; for proportions of reduced coenzyme Q10: Example 3: 6 equivalents
Method: as §1, §2
Crystalline oxidized coenzyme Q10 (0.3 g (i.e. 0.36 mmol)) was added to limonene (4.5 g). Proline (6 equivalents (i.e., 2.16 mmol)) or serine (6 equivalents (i.e. 2.16 mmol)) was separately added thereto. The obtained mixtures were stirred and heated at 85° C. for 16 hours under a nitrogen atmosphere. The reaction solutions were analyzed by HPLC after the reaction.
Crystalline oxidized coenzyme Q10 (0.3 g (i.e., 0.36 mmol)) was added to limonene (4.5 g). One of the amino acids (6 equivalents (i.e., 2.16 mmol) each) listed in table 3 was separately added thereto. The obtained mixtures were stirred and heated at 85° C. for 16 hours under a nitrogen atmosphere.

[4] = Reduction of oxidized coenzyme Q10 by amino acid in condensed ricinoleate (CR-310)/MCT, HPLC proportion of reduced coenzyme Q10; settings: condensed ricinoleate (CR-310) and MCT, 80° C., 16 hours, nitrogen atmosphere; for Comparative Example 5: proportion of reduced coenzyme Q10: 6 equivalents amino acid
Method: as §1, §2
Crystalline oxidized coenzyme Q10 (0.3 g (i.e. 0.36 mmol)) and tryptophan (6 equivalents (i.e., 2.16 mmol)) were added to a liquid mixture of condensed ricinoleate (CR-310, Sakamoto Yakuhin Kogyo Co., Ltd.) (3.8 g) and MCT (3.8 g). The obtained mixture was stirred and heated at 80° C. for 16 hours under a nitrogen atmosphere. The reaction solution was analyzed by HPLC after the reaction.
Crystalline oxidized coenzyme Q10 (0.3 g (i.e., 0.36 mmol)) was added to a liquid mixture of condensed ricinoleate (CR-310, Sakamoto Yakuhin Kogyo Co., Ltd.) (3.8 g) and MCT (3.8 g). One of the amino acids (6 equivalents (i.e., 2.16 mmol) each) listed in table 3 was separately added thereto. The obtained mixtures were stirred and heated at 80° C. for 16 hours under a nitrogen atmosphere.

For `C[C@H](N)C(=O)O` [Alanine], the “Comparative Example 2: proportion of reduced coenzyme Q10” value [1] was 0%, the “Comparative Example 3: proportion of reduced coenzyme Q10” value [2] was 0% and the “Comparative Example 4: proportion of reduced coenzyme Q10” value [3] was 0%. For the same compound, the “Comparative Example 5: proportion of reduced coenzyme Q10” value [4] was 0%.
With `N=C(N)NCCC[C@H](N)C(=O)O` [Arginine] the “Proportion of reduced coenzyme Q10” value [1] was 35% by weight.
With `NCC(=O)O` [Glycine] the “Comparative Example 2: proportion of reduced coenzyme Q10” value [1] was 0%, the “Comparative Example 3: proportion of reduced coenzyme Q10” value [2] was 0% and the “Comparative Example 4: proportion of reduced coenzyme Q10” value [3] was 0%. The “Comparative Example 5: proportion of reduced coenzyme Q10” value [4] was 1%.
With `CC[C@H](C)[C@H](N)C(=O)O` [Isoleucine] the “Comparative Example 2: proportion of reduced coenzyme Q10” value [1] was 1%, the “Comparative Example 3: proportion of reduced coenzyme Q10” value [2] was 1% and the “Comparative Example 4: proportion of reduced coenzyme Q10” value [3] was 0%. The “Comparative Example 5: proportion of reduced coenzyme Q10” value [4] was 0%.
With `N[C@@H](CS)C(=O)O` [L-cysteine] the “Proportion of reduced coenzyme Q10” value [2] was 7% by weight.
For `CC(=O)N[C@@H](CS)C(=O)O` [N-acetylcysteine], the “Proportion of reduced coenzyme Q10” value [2] was 3% by weight.
For `O=C(O)[C@@H]1CCCN1` [Proline], the “Proportion of reduced coenzyme Q10” value [1] was 6% by weight and the “proportions of reduced coenzyme Q10” value [3] was 8 % by weight.
For `N[C@@H](CO)C(=O)O` [Serine], the “Proportion of reduced coenzyme Q10” value [1] was 5% by weight and the “proportions of reduced coenzyme Q10” value [3] was 3 % by weight.
In the case of `N[C@@H](Cc1c[nH]c2ccccc12)C(=O)O` [Tryptophan], the “Proportion of reduced coenzyme Q10” value [1] is reported as 21% by weight, the “Proportion of reduced coenzyme Q10” value [2] is reported as 33% by weight and the “Proportion of reduced coenzyme Q10” value ([4]; Example 4: 6 equivalents) is reported as 5 % by weight.
For `CC(C)[C@H](N)C(=O)O` [Valine], the “Comparative Example 2: proportion of reduced coenzyme Q10” value [1] was 1%, the “Comparative Example 3: proportion of reduced coenzyme Q10” value [2] was 0% and the “Comparative Example 4: proportion of reduced coenzyme Q10” value [3] was 0%. The “Comparative Example 5: proportion of reduced coenzyme Q10” value [4] was 0%.
With Lysine•n hydrate the “Proportion of reduced coenzyme Q10” value [1] was 69% by weight.
